According to ChEMBL document CHEMBL1139123, “Rational design and synthesis of novel nucleotide anti-Giardia agents” (Bioorg Med Chem Lett, 2007):
≈ marks a conversion by molar mass, not a printed value.

What was measured:
[1] = Toxicity in bovine MDBK cells; details: bovine (Bos taurus)
Giardia intestinalis [2] = experiment: Antiprotozoal activity against Giardia lamblia WB6 assessed as inhibition of cyst formation at 10 uM after 4 days relative to control; type: functional; details: Giardia duodenalis, WB6, 96 h
Giardia intestinalis [3] = experiment: Antiprotozoal activity against Giardia lamblia WB6 trophozoites after 48 hrs; type: functional; details: Giardia duodenalis, WB6, 48 h
[4] = Therapeutic index, ratio of IC50 for bovine MDBK cells to MIC for Giardia lamblia WB6; type: cell-based; details: cattle

MIC (Giardia intestinalis [3]) [µM] | Structure (SMILES) | IC50 [1] [µM] | inhibition at 10 µM (Giardia intestinalis [2]) [%] | selectivity ratio [4]
3.9 (≈ 0.972 µg/mL) | CC(=O)N[C@@H]1[C@@H](O)[C@H](O)[C@@H](CO)O[C@@H]1CCO | 125 | 56.2 | 32
15.6 (≈ 3.83 µg/mL) | C=CC[C@H]1O[C@H](CO)[C@@H](O)[C@H](O)[C@H]1NC(C)=O | 60 | 9.7 | 17
3.9 (≈ 2.16 µg/mL) | CC(=O)N[C@@H]1[C@@H](O)[C@H](O)[C@@H](CO)O[C@@H]1CCOP(=O)(O)CC[C@H]1O[C@@H](n2ccc(=O)[nH]c2=O)[C@H](O)[C@@H]1O | 250 | 27.5 | 64
